Results taken from patent publication US12391701B2, “Chromene-based compounds, methods and uses thereof” (University of Minho, priority 2019, dated 2025).

How the values were obtained:
[1] = test system: MCF-7 cells; experiment: Wound-healing assay, MCF-7 cell migration; assay type: cell-based, human; conditions: for cell migration less than the control: after 72 hours of treatment, IC50 (and ½IC50) concentration
Method: In an embodiment, the effect of the four selected compounds (MC408, MC409, MC406 and MC421) was further evaluated on cell migration (FIG. 1). MCF-7 cells were treated with the respective IC50 and half of the IC50 values for 72 hours and the wound-healing assay was performed. Half of the IC50 concentration was used for each compound to evaluate concentration-dependent effects. […] Results are presented as mean±SD of at least three independent experiments, *p<0.05; **p<0.01; ***p<0.001; ****p<0.0001 compared to control (DMSO, 0.5%).
In an embodiment, cell migration was assessed by the wound-healing assay that mimics the process of cell migration during wound-healing in vivo. This method is based on making a scratch, simulating a wound in a cell monolayer, capturing the images at the beginning and regular intervals during cell migration process to close the wound and comparing the images to quantify the cell migration rate. MCF-7 and Caki-2 cells were plated in 6-well plates at a density of 9.0×10^5 and 3.0×10^5 per 2 mL, respectively, and grown overnight at 37° C. in a 5% CO2 humidified atmosphere. A 200 μL pipette tip was used to make two scratches in a layer of confluent cells. Cells were gently washed once with 500 μL of PBS. MCF-7 cells were treated with compounds at the respective IC50, ½IC50, or 0.5% DMSO (control), for 72 hours. At 0, 12, 24, 48 and 72 hours, specific wound sites (four positions for each wound) were photographed. […] Images were captured at 100× magnification using an Olympus IX51 inverted microscope equipped with an Olympus DP20 Digital Camera System. Assessment of five migration distances was performed using BeWound 1.7.1 and the percentage of cell migration normalized to the control was plotted using GraphPad Prism 6 software. Three independent experiments were performed for each compound. The significance of the difference between different groups was determined with Student t-test.

[2] = test system: acute leukemia cell line HL-60; experiment: Cell viability MTS assay, HL-60; assay type: cell-based; conditions: Homo sapiens, 72 hours
Method: In an embodiment, the antiproliferative activity of compounds MC408, MC409, MC421 and MC406 was further determined against glioma cell lines (U87, GAMG and GL18) and acute leukemia cell lines (HL-60, KG-1 and Jurkat). This was done in order to evaluate if the compounds presented an equally interesting anticancer profile in other cancer cell models. Cell viability was determined using the MTS assay, after exposure of the cells to the respective compounds for 72 hours at appropriate concentration ranges to determine the respective IC50 values.
In an embodiment, three human breast cancer cell lines Hs578T, MDA-MB-468 and MCF-7, and a normal breast cell line MCF-10A, were obtained from ATCC (American Type Culture Collection). The cancer cell lines were cultured in Dulbecco's modified Eagle medium, 4.5 g/l glucose (DMEM, Gibco) supplemented with 10% heating inactivated Fetal Bovine Serum (FBS, Gibco) and 1% antibiotic solution (Penicillin-Streptomycin, Gibco). The normal cell line was cultured in Dulbecco's Modified Eagle Medium: Nutrient Mixture F-12 (DMEM/F12, Gibco) supplemented with 5% heating inactivated FBS (Gibco), 1% antibiotic solution (Penicillin-Streptomycin, Gibco), 1% steroid hormone (Hydrocortisone, Sigma-Aldrich), 0.1% peptide hormone (Insulin, Sigma-Aldrich) and 0.01% protein complex (Cholera Toxin, Gibco). Two distinct human acute myeloid leukemia (AML) cell lines, HL-60 (FAB M2) and KG-1 (erythroleukemia-FAB M6), and one human lymphoblastic leukemia (ALL) cell line, Jurkat (T cell type), were also used. These three cell lines were obtained from German Collection of Microorganisms and Cell cultures (DMSZ®, Deutsche Sammlung von Mikroorganismen and Zellkulturen in German). Cells were cultured in RPMI 1640 medium (Biochrom®-Merck Millipore) supplemented with 10% heating inactivated FBS (Biochrom®-Merck Millipore) and 1% antibiotic/antimitotic mixture (Invitrogen®). Three human glioblastoma (GBM) cell line models, two established and commercially available cell lines (U87MG and GAMG, kind gift from Rui M. Reis) and one primary GBM culture (GLIB) were also used. GBM cells were cultures in DMEM (Biochrom-Merck Millipore), all supplemented with 10% FBS. The Renal cell carcinoma cell lines A498, 786-O, Caki-2 and HK2 were obtained from ATCC. The cancer cell line A498 was cultured in MEM medium (Biochrom®-Merck Millipore), 786-O was cultured in RPMI 1640 medium (Biochrom®-Merck Millipore), Caki-2 was cultured in Mc Coys medium (Biochrom®-Merck Millipore) and HK2 was cultured in RPMI 1640 medium (Biochrom®-Merck Millipore). All the media were supplemented with 10% heat inactivated FBS (Biochrom®-Merck Millipore) and 1% antibiotic/antimitotic mixture (Invitrogen®). All cells were grown in a humidified incubator at 37° C. and 5% CO2. […]

Row | SMILES | cell migration less than the control [1] | IC50 [2] [µM] | decrease of percentage of cell migration relative to control ([1]; after 12 hours, IC50 and ½IC50, control 0.5% DMSO)
1 | COc1cccc2c1Oc1nc(-c3ccc(F)cc3)[nH]c1C2C1c2cccc(OC)c2Oc2nc(-c3ccc(F)cc3)[nH]c21 (stereo not drawn) [MC406, 2,2′-bis(4-fluorophenyl)-5,5′-dimethoxy-1,1,9,9′-tetrahydro-9,9′-bichromeno[2,3-]imidazoles] | 20% | 0.65 | –
2 | COc1cccc2c1Oc1nc(-c3ccc(Br)cc3)[nH]c1C2 [MC408, 2-(4-bromophenyl)-5-methoxy-3,9-dihydrochromeno[2,3-d]imidazoles] | 20% | 0.57 | –
3 | COc1cccc2c1Oc1nc(-c3ccc(F)cc3)[nH]c1C2 [MC409, 2-(4-fluorophenyl)-5-methoxy-3,9-dihydrochromeno[2,3-d]imidazoles] | about 12% | 0.65 | about 40%
4 | COc1cccc2c1Oc1nc(-c3ccc(Br)cc3)[nH]c1C2C1c2cccc(OC)c2Oc2nc(-c3ccc(Br)cc3)[nH]c21 (stereo not drawn) [MC421, 2,2′-bis(4-bromophenyl)-5,5′-dimethoxy-1,1,9,9′-tetrahydro-9,9′-bichromeno[2,3-]imidazoles] | 13% | 0.25 | –
